Assay [1] deals with Beta-2 adrenergic receptor (Homo sapiens, UniProt P07550). It is filed as functional, cell-based.
For assay [2], the target named is Voltage-gated inwardly rectifying potassium channel KCNH2 (Homo sapiens, UniProt Q12809). It counts as functional. The note with it: read-out: AC50.
The target of assay [3] is T1, Progesterone receptor (Homo sapiens, UniProt P06401).
T1 sequence (P06401 whole entry): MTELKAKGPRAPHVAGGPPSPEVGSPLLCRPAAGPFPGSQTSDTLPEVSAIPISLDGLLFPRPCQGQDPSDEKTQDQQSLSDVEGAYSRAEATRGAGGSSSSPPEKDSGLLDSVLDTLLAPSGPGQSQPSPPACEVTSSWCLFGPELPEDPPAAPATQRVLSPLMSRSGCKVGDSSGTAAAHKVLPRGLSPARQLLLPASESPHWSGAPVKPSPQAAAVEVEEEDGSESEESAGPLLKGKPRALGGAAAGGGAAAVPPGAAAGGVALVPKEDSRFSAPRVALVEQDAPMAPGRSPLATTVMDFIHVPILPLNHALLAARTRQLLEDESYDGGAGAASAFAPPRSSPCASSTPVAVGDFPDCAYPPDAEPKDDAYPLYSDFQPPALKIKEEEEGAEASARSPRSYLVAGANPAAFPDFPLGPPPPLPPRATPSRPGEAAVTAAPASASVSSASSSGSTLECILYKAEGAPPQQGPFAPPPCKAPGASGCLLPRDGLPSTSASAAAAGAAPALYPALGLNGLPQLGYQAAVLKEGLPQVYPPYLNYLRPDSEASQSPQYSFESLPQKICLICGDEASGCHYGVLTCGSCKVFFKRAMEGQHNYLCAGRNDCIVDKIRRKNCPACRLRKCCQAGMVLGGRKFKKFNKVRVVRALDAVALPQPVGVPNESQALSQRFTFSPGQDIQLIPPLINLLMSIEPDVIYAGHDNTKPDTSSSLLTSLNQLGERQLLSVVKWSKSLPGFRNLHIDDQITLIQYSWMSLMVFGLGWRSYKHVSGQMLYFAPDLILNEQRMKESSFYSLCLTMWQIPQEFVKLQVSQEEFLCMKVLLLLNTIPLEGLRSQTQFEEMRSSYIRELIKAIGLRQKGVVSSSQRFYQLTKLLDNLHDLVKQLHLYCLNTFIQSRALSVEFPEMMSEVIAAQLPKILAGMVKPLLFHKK
It counts as functional.

Assay [4] concerns the target T2, 5-hydroxytryptamine receptor 1A (Homo sapiens, UniProt P08908).
T2 sequence (P08908 whole entry): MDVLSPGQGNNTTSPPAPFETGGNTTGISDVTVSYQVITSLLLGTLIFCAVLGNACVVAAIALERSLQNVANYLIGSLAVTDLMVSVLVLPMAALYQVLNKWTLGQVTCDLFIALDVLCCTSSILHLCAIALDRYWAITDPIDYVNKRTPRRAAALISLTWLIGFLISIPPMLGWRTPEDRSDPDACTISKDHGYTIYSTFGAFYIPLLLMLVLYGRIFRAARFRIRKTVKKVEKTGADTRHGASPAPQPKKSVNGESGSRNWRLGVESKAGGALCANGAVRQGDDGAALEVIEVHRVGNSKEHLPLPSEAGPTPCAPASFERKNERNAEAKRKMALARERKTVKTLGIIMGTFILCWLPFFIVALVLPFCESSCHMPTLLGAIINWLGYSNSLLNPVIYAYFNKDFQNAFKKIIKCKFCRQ
It is filed as functional, cell-based.

Assay [5] concerns the target 3',5'-cyclic-AMP phosphodiesterase 4D (Homo sapiens, UniProt Q08499). It is filed as functional.
In assay [6] the target is T3, Mu-type opioid receptor (Homo sapiens, UniProt P35372).
The target in assay [7] is Gamma-aminobutyric acid receptor subunit alpha-1 (Rattus norvegicus, UniProt P62813).
Chain of Gamma-aminobutyric acid receptor subunit alpha-1 (P62813 whole entry): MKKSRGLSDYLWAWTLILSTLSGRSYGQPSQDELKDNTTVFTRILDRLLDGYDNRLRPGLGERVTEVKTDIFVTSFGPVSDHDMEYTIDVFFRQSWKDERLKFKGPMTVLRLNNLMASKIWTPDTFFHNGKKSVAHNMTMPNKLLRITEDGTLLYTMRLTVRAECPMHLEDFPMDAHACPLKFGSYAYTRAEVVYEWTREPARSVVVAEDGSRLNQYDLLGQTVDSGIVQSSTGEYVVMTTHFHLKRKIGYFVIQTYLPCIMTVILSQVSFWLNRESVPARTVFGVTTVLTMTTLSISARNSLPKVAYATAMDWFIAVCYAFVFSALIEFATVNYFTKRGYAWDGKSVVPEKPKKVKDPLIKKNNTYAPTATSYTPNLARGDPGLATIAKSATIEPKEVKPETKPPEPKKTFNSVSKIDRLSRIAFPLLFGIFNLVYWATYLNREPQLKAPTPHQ
The target in assay [8] is Voltage-dependent L-type calcium channel subunit alpha-1C (Rattus norvegicus, UniProt P22002). It is filed as functional.
Chain of Voltage-dependent L-type calcium channel subunit alpha-1C (P22002 whole entry): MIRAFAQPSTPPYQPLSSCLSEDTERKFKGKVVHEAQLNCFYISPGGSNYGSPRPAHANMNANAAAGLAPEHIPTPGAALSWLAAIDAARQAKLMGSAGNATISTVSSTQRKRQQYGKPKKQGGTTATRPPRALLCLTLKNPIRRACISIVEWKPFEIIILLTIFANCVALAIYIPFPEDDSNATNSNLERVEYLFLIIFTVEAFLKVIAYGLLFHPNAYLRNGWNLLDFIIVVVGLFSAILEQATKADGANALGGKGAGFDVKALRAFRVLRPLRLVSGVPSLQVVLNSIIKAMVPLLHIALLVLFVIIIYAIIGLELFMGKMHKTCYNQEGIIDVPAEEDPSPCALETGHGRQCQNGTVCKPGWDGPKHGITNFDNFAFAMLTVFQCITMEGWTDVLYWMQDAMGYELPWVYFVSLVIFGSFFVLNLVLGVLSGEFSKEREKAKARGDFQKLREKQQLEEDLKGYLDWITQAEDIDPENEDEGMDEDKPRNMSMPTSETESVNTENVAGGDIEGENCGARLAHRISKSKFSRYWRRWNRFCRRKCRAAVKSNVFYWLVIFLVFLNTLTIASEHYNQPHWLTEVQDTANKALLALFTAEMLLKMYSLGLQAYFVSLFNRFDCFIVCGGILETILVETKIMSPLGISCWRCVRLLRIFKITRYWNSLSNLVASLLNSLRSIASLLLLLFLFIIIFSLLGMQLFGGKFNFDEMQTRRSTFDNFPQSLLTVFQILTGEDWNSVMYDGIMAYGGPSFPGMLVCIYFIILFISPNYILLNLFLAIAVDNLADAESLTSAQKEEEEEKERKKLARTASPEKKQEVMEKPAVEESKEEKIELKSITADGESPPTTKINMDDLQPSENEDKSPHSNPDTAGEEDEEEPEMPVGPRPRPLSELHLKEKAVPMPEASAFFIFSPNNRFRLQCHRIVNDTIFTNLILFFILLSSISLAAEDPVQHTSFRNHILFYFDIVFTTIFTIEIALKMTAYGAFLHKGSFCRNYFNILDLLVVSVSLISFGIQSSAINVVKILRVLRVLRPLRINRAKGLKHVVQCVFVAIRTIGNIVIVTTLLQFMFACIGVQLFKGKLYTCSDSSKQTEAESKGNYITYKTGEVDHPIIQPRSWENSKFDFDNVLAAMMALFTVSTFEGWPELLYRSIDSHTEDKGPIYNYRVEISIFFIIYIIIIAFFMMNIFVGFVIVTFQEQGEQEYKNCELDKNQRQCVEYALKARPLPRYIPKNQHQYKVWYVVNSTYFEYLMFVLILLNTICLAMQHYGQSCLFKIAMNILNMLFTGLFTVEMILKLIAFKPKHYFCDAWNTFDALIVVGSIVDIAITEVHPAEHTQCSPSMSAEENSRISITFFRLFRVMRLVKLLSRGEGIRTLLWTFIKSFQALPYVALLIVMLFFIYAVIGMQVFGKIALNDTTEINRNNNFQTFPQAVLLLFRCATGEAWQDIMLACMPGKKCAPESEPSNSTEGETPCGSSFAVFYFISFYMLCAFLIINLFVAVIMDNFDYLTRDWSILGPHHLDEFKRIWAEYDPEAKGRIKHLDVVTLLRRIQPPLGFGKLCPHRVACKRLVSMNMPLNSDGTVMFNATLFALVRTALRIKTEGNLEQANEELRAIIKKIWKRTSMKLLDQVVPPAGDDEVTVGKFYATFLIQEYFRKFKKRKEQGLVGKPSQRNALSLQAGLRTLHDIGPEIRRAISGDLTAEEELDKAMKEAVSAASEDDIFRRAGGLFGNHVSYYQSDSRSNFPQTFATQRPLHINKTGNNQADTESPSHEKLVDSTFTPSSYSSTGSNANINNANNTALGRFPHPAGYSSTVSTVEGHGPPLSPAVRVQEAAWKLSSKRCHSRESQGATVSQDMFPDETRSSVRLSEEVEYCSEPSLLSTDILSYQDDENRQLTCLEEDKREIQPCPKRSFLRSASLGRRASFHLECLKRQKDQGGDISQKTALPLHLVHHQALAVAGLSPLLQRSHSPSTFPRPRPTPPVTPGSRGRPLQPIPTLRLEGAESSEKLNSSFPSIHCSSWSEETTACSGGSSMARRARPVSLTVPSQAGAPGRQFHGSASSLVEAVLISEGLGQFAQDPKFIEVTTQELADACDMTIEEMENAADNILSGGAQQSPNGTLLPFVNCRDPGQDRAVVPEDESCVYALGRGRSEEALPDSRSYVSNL
The target of assay [9] is Prostaglandin G/H synthase 1 (Homo sapiens, UniProt P23219). It counts as functional.
Chain of Prostaglandin G/H synthase 1 (P23219 whole entry): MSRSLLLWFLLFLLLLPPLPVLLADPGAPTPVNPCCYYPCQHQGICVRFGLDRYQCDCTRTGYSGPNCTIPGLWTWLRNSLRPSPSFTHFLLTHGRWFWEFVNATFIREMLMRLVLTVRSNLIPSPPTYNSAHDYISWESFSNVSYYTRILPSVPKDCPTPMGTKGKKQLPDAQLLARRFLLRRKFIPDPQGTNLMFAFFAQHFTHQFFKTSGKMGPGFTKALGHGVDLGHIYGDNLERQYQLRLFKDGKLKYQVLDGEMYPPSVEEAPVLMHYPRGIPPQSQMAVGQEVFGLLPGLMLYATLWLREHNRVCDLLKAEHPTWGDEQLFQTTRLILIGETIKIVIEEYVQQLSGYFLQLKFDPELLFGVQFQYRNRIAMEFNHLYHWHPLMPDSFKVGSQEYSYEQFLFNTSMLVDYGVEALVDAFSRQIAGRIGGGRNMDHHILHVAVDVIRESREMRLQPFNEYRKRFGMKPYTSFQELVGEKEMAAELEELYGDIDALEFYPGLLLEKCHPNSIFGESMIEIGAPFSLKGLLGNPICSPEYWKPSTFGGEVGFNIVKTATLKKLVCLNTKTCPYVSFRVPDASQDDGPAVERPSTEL
Assay [10] concerns the target Histamine H3 receptor (Homo sapiens, UniProt Q9Y5N1).
Assay [11] has as its target Acetylcholinesterase (Homo sapiens, UniProt P22303). It counts as functional.
Assay [12] addresses T4, Muscarinic acetylcholine receptor M1 (Homo sapiens, UniProt P11229).
T4 sequence (P11229 whole entry): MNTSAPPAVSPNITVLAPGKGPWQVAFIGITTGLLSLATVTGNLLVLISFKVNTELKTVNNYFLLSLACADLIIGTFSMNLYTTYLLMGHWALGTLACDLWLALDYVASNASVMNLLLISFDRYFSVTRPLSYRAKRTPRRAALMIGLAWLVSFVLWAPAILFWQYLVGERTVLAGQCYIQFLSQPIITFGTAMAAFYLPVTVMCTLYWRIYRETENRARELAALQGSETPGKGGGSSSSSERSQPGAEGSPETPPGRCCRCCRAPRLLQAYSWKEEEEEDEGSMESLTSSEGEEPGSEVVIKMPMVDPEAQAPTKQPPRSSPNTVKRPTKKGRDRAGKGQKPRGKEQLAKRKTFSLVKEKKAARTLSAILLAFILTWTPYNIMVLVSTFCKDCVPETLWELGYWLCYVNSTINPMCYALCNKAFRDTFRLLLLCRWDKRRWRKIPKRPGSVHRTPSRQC
It counts as functional, cell-based.

The target in assay [13] is T3, Mu-type opioid receptor. The source holds these as a separate data set.

Drawing on ChEMBL document CHEMBL5291721, “A preclinical secondary pharmacology resource illuminates target-adverse drug reaction associations of marketed drugs” (Nat Commun, 2023), this text covers AC50 for 16 compounds.

Structures are written as SMILES.
Further: assay procedure not described here.

Chain of Beta-2 adrenergic receptor (P07550 whole entry): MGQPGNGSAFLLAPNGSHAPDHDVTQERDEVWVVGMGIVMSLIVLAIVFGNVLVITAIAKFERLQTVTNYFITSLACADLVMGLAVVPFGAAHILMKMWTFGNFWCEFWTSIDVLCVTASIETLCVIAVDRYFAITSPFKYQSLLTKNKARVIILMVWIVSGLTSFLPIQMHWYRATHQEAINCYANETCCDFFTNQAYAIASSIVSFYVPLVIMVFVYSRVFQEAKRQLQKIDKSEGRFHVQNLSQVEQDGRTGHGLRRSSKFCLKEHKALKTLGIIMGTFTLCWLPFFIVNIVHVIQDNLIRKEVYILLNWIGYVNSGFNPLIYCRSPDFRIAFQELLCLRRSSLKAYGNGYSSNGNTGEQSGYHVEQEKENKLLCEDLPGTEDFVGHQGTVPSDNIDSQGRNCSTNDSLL
Chain of Voltage-gated inwardly rectifying potassium channel KCNH2 (Q12809 whole entry): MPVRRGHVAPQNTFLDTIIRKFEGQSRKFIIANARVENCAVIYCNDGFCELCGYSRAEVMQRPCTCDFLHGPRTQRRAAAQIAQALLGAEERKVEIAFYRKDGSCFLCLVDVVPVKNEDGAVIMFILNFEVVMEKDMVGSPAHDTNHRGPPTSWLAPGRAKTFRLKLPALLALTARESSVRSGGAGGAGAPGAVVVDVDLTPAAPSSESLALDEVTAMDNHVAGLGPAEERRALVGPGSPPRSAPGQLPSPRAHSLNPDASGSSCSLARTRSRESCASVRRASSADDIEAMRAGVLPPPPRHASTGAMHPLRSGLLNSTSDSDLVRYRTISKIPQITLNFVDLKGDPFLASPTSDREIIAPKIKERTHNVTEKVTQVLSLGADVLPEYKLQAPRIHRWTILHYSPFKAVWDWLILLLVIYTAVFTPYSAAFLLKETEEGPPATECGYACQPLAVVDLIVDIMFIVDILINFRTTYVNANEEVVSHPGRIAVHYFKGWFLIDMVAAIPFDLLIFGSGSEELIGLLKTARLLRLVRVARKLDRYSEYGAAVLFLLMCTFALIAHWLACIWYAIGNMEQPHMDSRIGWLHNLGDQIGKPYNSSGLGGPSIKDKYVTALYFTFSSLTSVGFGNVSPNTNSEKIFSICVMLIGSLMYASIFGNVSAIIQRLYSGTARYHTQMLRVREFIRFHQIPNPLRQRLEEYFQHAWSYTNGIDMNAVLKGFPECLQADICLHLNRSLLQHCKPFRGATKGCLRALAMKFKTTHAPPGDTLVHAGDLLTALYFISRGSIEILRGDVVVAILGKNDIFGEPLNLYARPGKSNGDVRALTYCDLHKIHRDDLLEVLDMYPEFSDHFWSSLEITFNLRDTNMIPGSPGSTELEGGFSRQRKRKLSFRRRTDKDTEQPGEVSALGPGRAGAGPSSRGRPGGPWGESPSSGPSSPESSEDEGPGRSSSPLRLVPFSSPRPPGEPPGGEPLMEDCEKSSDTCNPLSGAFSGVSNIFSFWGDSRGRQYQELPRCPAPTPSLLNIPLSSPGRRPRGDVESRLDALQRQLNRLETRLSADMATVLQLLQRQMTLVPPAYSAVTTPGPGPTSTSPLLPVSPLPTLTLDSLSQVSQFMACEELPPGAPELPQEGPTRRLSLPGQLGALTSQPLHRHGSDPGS

Turning to `CC(=N)N1CC[C@H](SC2=C(C(=O)O)N3C(=O)[C@H]([C@@H](C)O)[C@H]3C2)C1`, the AC50 (as a rule, the concentration giving half of the maximal activity seen) in assay [1] is above 300 µM; in assay [2], 15 µM; in assay [3], above 300 µM; in [4], above 300 µM; in [5], above 300 µM; in [6], above 300 µM.
On to `O=C1CN2Cc3c(ccc(Cl)c3Cl)N=C2N1` [ANAGRELIDE], for which the AC50 is above 10 µM in assay [7]; above 30 µM in assay [1]; above 30 µM in [2]; above 30 µM in assay [4]; above 10 µM in assay [8]; above 30 µM in assay [5]. Further, the AC50 in [6] was above 30 µM.
Turning to `CCc1oc2ccccc2c1C(=O)c1cc(Br)c(O)c(Br)c1` [BENZBROMARONE], the AC50 in assay [7] is above 10 µM; in [1], above 30 µM; in assay [2] it was above 30 µM; in assay [3], above 30 µM; in [4] it was above 30 µM; in assay [8], above 10 µM. The AC50 in assay [6] was determined as 26 µM.
As for `CC1(C)O[C@@H]2C[C@H]3[C@@H]4C[C@H](F)C5=CC(=O)C=C[C@]5(C)[C@H]4[C@@H](O)C[C@]3(C)[C@]2(C(=O)CO)O1` [FLUNISOLIDE], the AC50 is above 30 µM in assay [1]; above 30 µM in assay [2]; 0.64 µM in assay [3]; above 30 µM in assay [4]; above 30 µM in assay [5]; above 30 µM in assay [6].
For `C[C@H]1Oc2cc(cnc2N)-c2c(nn(C)c2C#N)CN(C)C(=O)c2ccc(F)cc21` [LORLATINIB], the AC50 in assay [1] is above 30 µM; in [2], above 30 µM; in assay [3], above 30 µM; in assay [4], above 30 µM; in assay [5] it was 16 µM; in assay [6] it was above 30 µM.
As to `Cc1cnc(NC(=O)C2=C(O)c3ccccc3S(=O)(=O)N2C)s1` [MELOXICAM], the AC50 in [7] is above 10 µM; in assay [1], above 30 µM; in assay [2], above 30 µM; in [4], above 10 µM; in assay [8], above 10 µM; in [5], above 10 µM. The compound further came in with an AC50 in assay [6] above 10 µM.
Take `CC(=O)/N=c1/sc(S(N)(=O)=O)nn1C` [METHAZOLAMIDE]: the AC50 in assay [7] is above 10 µM; in [9] it was above 30 µM; in [10] it was above 30 µM; in assay [11], above 30 µM; in assay [12], above 30 µM; in assay [2] it was above 30 µM. For the same compound, the AC50 in [3] was above 10 µM; in [13], above 30 µM; in assay [4] it was above 10 µM; in [8] it was above 10 µM; in [5] it was above 30 µM; in [6] it was above 30 µM.
In the case of `COc1ccnc(C[S+]([O-])c2nc3ccc(OC(F)F)cc3[nH]2)c1OC` (configuration not stated) [PANTOPRAZOLE], the AC50 in assay [7] was above 10 µM; in assay [1], above 30 µM; in assay [2], above 30 µM; in assay [4], above 10 µM; in [8], above 10 µM; in assay [5] it was above 30 µM. In assay [6], this compound had an AC50 above 30 µM.
On to `CNC[C@H](O)c1cccc(O)c1` [PHENYLEPHRINE], for which the AC50 in assay [7], in assay [9], in [10], in assay [11], in assay [12] and in [2] was above 30 µM in each case. Besides, the AC50 is above 30 µM in assay [13]; above 30 µM in [4]; above 10 µM in [8]; above 30 µM in assay [5]; above 10 µM in [6].
Take `O=C1NC(=O)C(c2ccccc2)(c2ccccc2)N1` [PHENYTOIN]: the AC50 in assay [7] is above 10 µM; in assay [1], above 30 µM; in [3], above 30 µM; in [4], above 30 µM; in [8], above 10 µM; in [5], above 30 µM. In assay [6], this compound returned an AC50 above 30 µM.
Consider `CCOc1cc(CC(=O)N[C@@H](CC(C)C)c2ccccc2N2CCCCC2)ccc1C(=O)O` [REPAGLINIDE], for which the AC50 in [1] is above 30 µM; in assay [2], above 30 µM; in assay [3], above 30 µM; in assay [4], above 30 µM; in assay [5] it was 9.6 µM; in [6], above 30 µM.
Regarding `CCCN(CCc1cccs1)[C@H]1CCc2c(O)cccc2C1` [ROTIGOTINE], the AC50 in assay [1] was above 30 µM; in assay [2], 3.8 µM; in assay [3], above 30 µM; in assay [4], above 10 µM; in assay [5] it was above 30 µM; in [6], 8.6 µM.
Take `CC[C@H]1OC(=O)[C@H](C)[C@@H](O[C@H]2C[C@@](C)(OC)[C@@H](O)[C@H](C)O2)[C@H](C)[C@@H](O[C@@H]2O[C@H](C)C[C@H](N(C)C)[C@H]2O)[C@](C)(O)C[C@@H](C)/C(=N\OCOCCOC)[C@H](C)[C@@H](O)[C@]1(C)O` [ROXITHROMYCIN]: the AC50 in assay [1], in assay [2], in assay [3], in [4], in assay [5] and in assay [6] was above 30 µM in each case.
Regarding `CC(=O)S[C@@H]1CC2=CC(=O)CC[C@]2(C)[C@H]2CC[C@@]3(C)[C@@H](CC[C@@]34CCC(=O)O4)[C@H]12` [SPIRONOLACTONE], the AC50 in assay [7] was above 10 µM; in assay [1] it was above 30 µM; in assay [2], above 30 µM; in assay [4], above 30 µM; in assay [8], above 10 µM; in assay [5], above 30 µM. The AC50 in assay [6] is above 30 µM.
Consider `Cn1c(=O)c2[nH]cnc2n(C)c1=O` [THEOPHYLLINE], for which the AC50 is above 10 µM in [7]; above 30 µM in assay [9]; above 30 µM in [10]; above 30 µM in assay [11]; above 30 µM in assay [1]; above 30 µM in [2]. Further, the half-maximal activity concentration (AC50) in assay [13] was above 30 µM; in assay [4], above 10 µM; in assay [8] it was above 10 µM; in [6], above 30 µM.
As for `CC1(C)O[C@@H]2[C@@H](CO[C@@]3(COS(N)(=O)=O)OC(C)(C)O[C@@H]23)O1` [TOPIRAMATE], the AC50 was above 10 µM in assay [7]; above 30 µM in assay [9]; above 30 µM in assay [10]; above 30 µM in assay [11]; above 30 µM in assay [12]; above 30 µM in [2]. The AC50 in assay [13] was above 30 µM; in assay [4], above 10 µM; in assay [8], above 10 µM; in [5], above 30 µM; in [6], above 10 µM.
